Results as given in publication PMC8230315, “A Pan-Inhibitor for Protein Arginine Methyltransferase Family Enzymes” (Biomolecules, 2021).
Read-outs that look alike come from different tables or passages of the source.

Legend:
Assay type in all cases: biochemical
[1] = target: T1, TbPRMT7 (Trypanosoma brucei brucei, UniProt Q582G4); experiment: Selectivity SAHH-coupled fluorescence assay, TbPRMT7; settings: at 1.2 μM
T1 construct: made in house
Excerpt: (§1) We chose the top four potent compounds (6b and 6l–n) to investigate their selectivities against several in-house methyltransferases including protein arginine methyltransferase TbPRMT7, two members of the protein lysine methyltransferase PKMT (G9a and SETD7), protein N-terminal methyltransferase 1 (NTMT1), and a small molecule methyltransferase nicotinamide N-methyltransferase (NNMT), all of which have a SAM binding site.
(§2) A fluorescence-based SAHH-coupled assay was applied to study the effect of the compound on methyltransferase activity of PRMT7, NTMT1, SETD7, G9a, NNMT, and SAHH. For PRMT7, the assay was performed in a final well volume of 100 μL: 25 mM Tris (pH = 7.5), 50 mM KCl, 0.01% Triton X-100, 5 μM SAHH, 0.2 μM PRMT7, 3 μM AdoMet, and 15 μM ThioGlo1. After incubation for 10 min with the inhibitor, reactions were initiated by the addition of 60 μM H4-21 peptide, and the reaction was monitored for 15 min. […] After incubation for 10 min with the inhibitor, reactions were initiated by the addition of 0.5 μM GPKRIA peptide, and the reaction was monitored for 15 min. […] After incubation for 10 min with the inhibitor, reactions were initiated by the addition of 90 μM H3-21 peptide, and the reaction was monitored for 15 min. […] After incubation for 10 min with the inhibitor, reactions were initiated by the addition of 10 μM nicotinamide, and the reaction was monitored for 18 min. […]

[2] = target: T2, PRMT5/MEP50 Complex (Homo sapiens, UniProt O14744); experiment: HotSpot radioisotope 3H-AdoMet methyltransferase assay, PRMT5/MEP50
T2 construct: purchased Reaction Biology
Protocol: (§3) Future studies will focus on obtaining structural information of II757 bound to PRMTs to inform how to connect to a substrate portion to increase both potency and selectivity for each PRMT.
(§4) Figure 6 Selectivity of II757 against the panel of PRMTs. II757 was tested in 10 doses with threefold serial dilution in the HotSpot methyltransferase assay at reaction biology. TEXT PRINTED IN THE PICTURE: II757: IC50 (nM) PRMT1: 16.4; IC50 (nM) PRMT3: 321; IC50 (nM) PRMT4: 5.05; IC50 (nM) PRMT5/MEP50 Complex: 18.2; IC50 (nM) PRMT5 (C449S)/MEP50: 36.6; IC50 (nM) PRMT6: 30.5; IC50 (nM) PRMT7: 555; IC50 (nM) PRMT8: 32.1

[3] = tested on: NNMT; experiment: Selectivity SAHH-coupled fluorescence assay, NNMT
Excerpt: as §1, §2

[4] = target: T3, SETD7 (Homo sapiens, UniProt Q8WTS6); experiment: Selectivity SAHH-coupled fluorescence assay, SETD7
T3 construct: made in house
T3 sequence (Q8WTS6 1-366): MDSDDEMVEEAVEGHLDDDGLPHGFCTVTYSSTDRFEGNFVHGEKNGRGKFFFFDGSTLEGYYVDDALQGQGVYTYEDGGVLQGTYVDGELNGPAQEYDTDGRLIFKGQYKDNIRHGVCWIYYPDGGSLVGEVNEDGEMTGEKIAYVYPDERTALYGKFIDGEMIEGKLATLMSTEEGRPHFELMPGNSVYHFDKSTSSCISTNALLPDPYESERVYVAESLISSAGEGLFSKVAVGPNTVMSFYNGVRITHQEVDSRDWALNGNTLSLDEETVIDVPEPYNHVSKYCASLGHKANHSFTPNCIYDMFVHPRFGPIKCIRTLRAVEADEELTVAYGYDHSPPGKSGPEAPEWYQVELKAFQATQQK
Excerpt: as §1
A fluorescence-based SAHH-coupled assay was applied to study the effect of the compound on methyltransferase activity of PRMT7, NTMT1, SETD7, G9a, NNMT, and SAHH. For PRMT7, the assay was performed in a final well volume of 100 μL: 25 mM Tris (pH = 7.5), 50 mM KCl, 0.01% Triton X-100, 5 μM SAHH, 0.2 μM PRMT7, 3 μM AdoMet, and 15 μM ThioGlo1. After incubation for 10 min with the inhibitor, reactions were initiated by the addition of 60 μM H4-21 peptide, and the reaction was monitored for 15 min. For NTMT1, the assay was performed in a final well volume of 100 μL: 25 mM Tris (pH = 7.5), 50 mM KCl, 0.01% Triton X-100, 5 μM SAHH, 0.1 μM NTMT1, 3 μM AdoMet, and 10 μM ThioGlo4. After incubation for 10 min with the inhibitor, reactions were initiated by the addition of 0.5 μM GPKRIA peptide, and the reaction was monitored for 15 min. For SETD7, the assay was performed in a final well volume of 100 μL: 25 mM potassium phosphate buffer (pH = 7.6), 0.01% Triton X-100, 5 μM SAHH, 1 μM SETD7, 2 μM AdoMet, and 10 μM ThioGlo1. After incubation for 10 min with the inhibitor, reactions were initiated by the addition of 90 μM H3-21 peptide, and the reaction was monitored for 15 min. For G9a, the assay was performed in a final well volume of 100 μL: 25 mM potassium phosphate buffer (pH = 7.6), 1 mM EDTA, 2 mM MgCl2, 0.01% Triton X-100, 5 μM SAHH, 0.1 μM His-G9a, 10 μM AdoMet, and 10 μM ThioGlo4. For NNMT, the assay was performed in a final well volume of 100 μL: 25 mM Tris (pH = 7.5), 50 mM KCl, 0.01% Triton X- 100, 5 μM SAHH, 0.1 μM NNMT, 10 μM AdoMet, and 10 μM ThioGlo1. After incubation for 10 min with the inhibitor, reactions were initiated by the addition of 10 μM nicotinamide, and the reaction was monitored for 18 min. The inhibitors were added at five concentrations: 100, 33.3, 11.1, 3.7, and 1.2 μM.

[5] = target: T4, PRMT1 (Homo sapiens, UniProt Q99873); experiment: SAHH-coupled fluorescence assay, PRMT1 inhibition
Protocol: A fluorescence-based SAHH-coupled assay was used to evaluate the IC50 values of inhibitors by monitoring the production of SAH from SAM after methylation. […] The fluorescence signal was monitored on a BMG CLARIOstar microplate reader with excitation at 400 nm and emission at 465 nm for 18 min. Data were processed using GraphPad Prism software 7.0. All experiments were performed in duplicate.
The fluorescence signal was monitored on a BMG CLARIOstar microplate reader with excitation at 400 nm and emission at 465 nm for 18 min. Data were processed using GraphPad Prism software 7.0. All experiments were performed in duplicate. […].

[6] = target: T4, PRMT1; experiment: HotSpot radioisotope 3H-AdoMet methyltransferase assay (Reaction Biology), PRMT1
Protocol: as §3, §4

[7] = target: T5, PRMT5 (C449S)/MEP50 (Homo sapiens, UniProt O14744, C449S); experiment: HotSpot radioisotope 3H-AdoMet methyltransferase assay, PRMT5 (C449S)/MEP50
T5 construct: purchased Reaction Biology
Protocol: as §3, §4

[8] = target: T6, PRMT6 (Homo sapiens, UniProt Q96LA8); experiment: HotSpot radioisotope 3H-AdoMet methyltransferase assay, PRMT6
T6 construct: purchased Reaction Biology
Protocol: as §3, §4

T4 sequence (Q99873 whole entry, species assumed): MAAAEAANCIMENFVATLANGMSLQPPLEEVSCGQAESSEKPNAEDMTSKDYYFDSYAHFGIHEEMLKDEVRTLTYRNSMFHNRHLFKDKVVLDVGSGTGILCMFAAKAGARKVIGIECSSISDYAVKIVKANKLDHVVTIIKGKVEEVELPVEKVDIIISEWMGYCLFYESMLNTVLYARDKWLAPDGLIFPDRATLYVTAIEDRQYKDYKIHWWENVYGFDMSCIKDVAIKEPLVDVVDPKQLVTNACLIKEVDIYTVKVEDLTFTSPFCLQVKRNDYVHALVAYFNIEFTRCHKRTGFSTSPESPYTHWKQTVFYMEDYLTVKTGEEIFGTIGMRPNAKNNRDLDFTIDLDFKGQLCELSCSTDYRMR
T5 sequence (O14744 whole entry C449S): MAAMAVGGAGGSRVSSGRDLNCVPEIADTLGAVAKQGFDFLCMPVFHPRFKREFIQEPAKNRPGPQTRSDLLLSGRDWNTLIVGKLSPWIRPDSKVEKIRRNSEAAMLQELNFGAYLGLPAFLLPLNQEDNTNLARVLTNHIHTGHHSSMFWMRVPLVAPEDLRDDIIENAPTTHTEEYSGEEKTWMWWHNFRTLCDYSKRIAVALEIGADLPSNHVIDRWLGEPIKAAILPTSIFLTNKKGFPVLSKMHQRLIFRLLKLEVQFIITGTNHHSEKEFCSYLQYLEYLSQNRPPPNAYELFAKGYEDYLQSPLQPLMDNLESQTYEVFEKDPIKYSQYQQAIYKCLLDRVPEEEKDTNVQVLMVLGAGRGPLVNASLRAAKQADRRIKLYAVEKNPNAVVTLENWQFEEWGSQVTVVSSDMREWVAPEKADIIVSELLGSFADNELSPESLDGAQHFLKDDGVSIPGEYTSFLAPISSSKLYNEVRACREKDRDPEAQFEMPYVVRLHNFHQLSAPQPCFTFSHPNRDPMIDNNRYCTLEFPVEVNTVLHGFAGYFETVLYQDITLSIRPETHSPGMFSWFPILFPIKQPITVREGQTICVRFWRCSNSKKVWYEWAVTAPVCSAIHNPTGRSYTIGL
T5 sequence (Q9BQA1 whole entry partner): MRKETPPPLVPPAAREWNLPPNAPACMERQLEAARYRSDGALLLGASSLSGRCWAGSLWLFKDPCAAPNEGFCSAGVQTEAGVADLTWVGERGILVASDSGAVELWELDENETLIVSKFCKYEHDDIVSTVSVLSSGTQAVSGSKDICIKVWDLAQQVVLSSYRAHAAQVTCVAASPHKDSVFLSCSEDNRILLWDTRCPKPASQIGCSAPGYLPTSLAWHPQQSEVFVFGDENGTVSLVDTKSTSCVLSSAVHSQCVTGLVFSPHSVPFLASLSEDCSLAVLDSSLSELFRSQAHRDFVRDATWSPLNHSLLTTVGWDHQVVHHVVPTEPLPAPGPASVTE
T1 sequence (Q582G4 whole entry): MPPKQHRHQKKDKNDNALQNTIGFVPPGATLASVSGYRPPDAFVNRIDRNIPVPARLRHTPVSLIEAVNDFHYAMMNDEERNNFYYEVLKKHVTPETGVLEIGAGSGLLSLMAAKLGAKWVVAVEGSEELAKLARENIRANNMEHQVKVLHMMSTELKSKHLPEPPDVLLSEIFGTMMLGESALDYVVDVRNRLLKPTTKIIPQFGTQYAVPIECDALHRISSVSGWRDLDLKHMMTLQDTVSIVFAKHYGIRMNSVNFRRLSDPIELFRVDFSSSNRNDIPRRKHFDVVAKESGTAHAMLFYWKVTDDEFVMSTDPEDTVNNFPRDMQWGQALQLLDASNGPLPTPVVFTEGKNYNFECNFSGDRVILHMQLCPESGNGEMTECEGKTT
T2 sequence (O14744 whole entry): as the sequence (O14744 whole entry C449S) above, with S449C counted along it
T2 sequence (Q9BQA1 whole entry partner): as the sequence (Q9BQA1 whole entry partner) above
T6 sequence (Q96LA8 whole entry): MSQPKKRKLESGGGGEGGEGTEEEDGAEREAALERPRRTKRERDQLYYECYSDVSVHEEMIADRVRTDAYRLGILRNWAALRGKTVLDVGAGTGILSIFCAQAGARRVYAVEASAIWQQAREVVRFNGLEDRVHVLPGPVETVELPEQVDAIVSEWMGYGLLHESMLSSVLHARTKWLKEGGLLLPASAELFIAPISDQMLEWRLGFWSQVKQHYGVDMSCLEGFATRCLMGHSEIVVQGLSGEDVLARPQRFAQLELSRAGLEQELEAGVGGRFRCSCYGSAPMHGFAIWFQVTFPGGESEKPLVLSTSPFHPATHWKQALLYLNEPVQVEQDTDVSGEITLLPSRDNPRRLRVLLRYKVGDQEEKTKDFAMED

## N=C(NCCCSC[C@H]1O[C@@H](n2cnc3c(N)ncnc32)[C@H](O)[C@@H]1O)Nc1cccc(Br)c1 [Compound 6l, 1-(3-((((2S,3S,4R,5R)-5-(6-amino-9H-purin-9-yl)-3,4-dihydroxytetrahydrofuran-2-yl)methyl)thio)propyl)-3-(3-bromophenyl)guanidine]
[1]
  activity against PRMT7: about 30%
[2]
  IC50: 0.0182 µM
[3]
  selectivity over NNMT: over 1000 fold
[4]
  selectivity over SETD7: over 1000 fold
[5]; PRMT1 0.1 µM, substrate concentration at 4 Km (footnote a), n = 2, mean ± SD
  IC50: 0.09 ± 0.04 µM
[5]; SAHH-coupled assay, PRMT1, read-out: apparent Ki
  Ki: ~0.018 µM
[5]; calculated as Ki, app = IC50/(1 + [S]/Km), read-out: Ki, app
  Ki: 0.018 ± 0.008 µM
[6]
  IC50: 0.0164 µM
[7]
  IC50: 0.0366 µM
[8]
  IC50: 0.0305 µM
